This passage reports IC50 and viability, T/C results from PubChem BioAssay AID1845196 (Molecular Pharmacology Branch, DTP, NCI, 2023).

Molecules are shown by their SMILES. Values joined by “and” are separate entries in the source; they are usually repeats but may differ in a detail not shown here. Equal values may be shown once. Where only a bound is given, the exact number is not on record here.

The assay deals with 292921-168-R tumor spheroid viability. The experiment in a line: Anticancer human tumor 292921-168-R patient-derived pancreatic carcinoma cell line growth inhibition. Particulars: spheroids with HUVEC and MSC; for viability, T/C: stronger effect = lower value. The source says: Multicellular complex tumor spheroid response to DNA repair inhibitors in combination with DNA-damaging drugs
This study explores the anticancer activities of DNA-damaging drugs and inhibitors of DNA damage repair, both as single agents and in combinations. Complex tumor spheroids comprised of malignant cells, endothelial cells and mesenchymal stem cells served as an in vitro model for human solid tumors. This model system incorporates physiologically relevant features and patient-derived or established malignant cell lines with clinically relevant genetic alterations from many tumor types. Twenty-six patient-derived or established malignant cell lines were evaluated representing sarcoma, melanoma, small cell lung cancer (SCLC), non-small cell lung cancer (NSCLC), as well as bladder, ovarian and pancreatic cancers. The concentration ranges selected for each drug and investigational agent were based upon clinically achievable concentrations if the clinical Cmax of the agent was known.
Compounds. The drugs and compounds olaparib (NSC753686), talazoparib (NSC767125), berzosertib (NSC777718), elimusertib (NSC800525), nedisertib (NSC802822), VX-984 (NSC792969), AZD-1390 (NSC803789), temozolomide (NSC362856), topotecan (NSC609699), trabectedin (NSC813783), staurosporine (NSC755774), and gemcitabine (NSC613327) were obtained from the National Cancer Institute (NCI) Developmental Therapeutics Program Chemical Repository. The FDA-approved anticancer drug set is available from the Developmental Therapeutics Program at https://dtp.cancer.gov/organization/dscb/obtaining/available_plates.htm. […] The stock solutions were prepared in dimethyl sulfoxide (DMSO, Sigma-Aldrich, St. Louis, MO, cat. D2650) at 400-fold the tested concentration and stored at -70 degrees C. Prior to their use, the stock solutions were diluted in fresh medium and the final DMSO concentration in the assay was 0.25% (v/v). All drugs and investigational agents were tested over a range starting from a high concentration at or near the clinical Cmax and decreasing in half-log increments. If the clinical Cmax for an agent had not been determined, the highest concentration tested was 10 microM.
Cell Lines. The patient-derived cancer cell (PDC) lines: 156681-154-R-J1-PDC, 283228-195-R-J1-PDC, 287954-098-R-J1-PDC, 292921-168-R-J2-PDC, 349418-098-R-PDC, 425362-245-T-J1-PDC, 556581-035-R-J1-PDC, and BL0293-F563-PDC were received from the NCI Patient-Derived Models Repository (PDMR, https://pdmr.cancer.gov). The established cell lines HS-SY-2 (RRID:CVCL_8719), MPNST, and SYO-1 (RRID:CVCL_7146) were obtained from the Sloan Kettering Institute. The alveolar soft parts sarcoma cell line ASPS-1 (RRID:CVCL_S738) was established at the NCI and grown from internal seed stocks. The following established cell lines were purchased from the American Type Culture Collection (ATCC, Manassas, VA): G-401 (ATCC, cat. CRL-1441, RRID:CVCL_0270), SW982 (ATCC, cat. HTB-93, RRID:CVCL_1734), VA-ES-BJ (ATCC, cat. CRL-2138, RRID:CVCL_1785), NCI-H719 (ATCC, cat. CRL-5837, RRID:CVCL_1582), NCI-H196 (ATCC, cat. CRL-5823, RRID:CVCL_1509), NCI-H841 (ATCC, cat. CRL-5845, RRID:CVCL_1595), NCI-H1618 (ATCC, cat. CRL-5879, RRID:CVCL_1480), NCI-H1876 (ATCC, cat. CRL-5902, RRID:CVCL_1503), DMS 114 (ATCC, cat. CRL-2066; RRID:CVCL_1174), NCI-H211 (ATCC, cat. CRL-5824; RRID:CVCL_1529), and SW 1271 (ATCC, cat. CRL-2177, RRID:CVCL_1716). The small cell lung cancer cell line COR-L88 was purchased from Sigma-Aldrich (cat. 92031917-1VL, RRID:CVCL_1141). The non-small cell lung cancer cell lines NCI-H226 (RRID:CVCL_1544) and NCI-H322M (RRID:CVCL_1557) were established at the NCI and grown from internal seed stocks. Pooled donor human umbilical vein endothelial cells (HUVEC, Lonza, cat. CC-2519) and human mesenchymal stem cells (hMSC, Lonza, cat. PT-2501) were purchased from Lonza (Walkersville, MD).
Cell Culture. All cells were maintained in an incubator at 37 degrees C and 5% CO2 with 95% humidity. […]
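Also: spheroids exposed to compounds for 7 days.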

Consider `Cc1cc(C)c(CNC(=O)c2cc(-c3ccc(CN4CCOCC4)cc3)cc3c2cnn3C2CCCC2)c(=O)[nH]1` + CC[C@@]1(O)C(=O)OCc2c1cc1n(c2=O)Cc2cc3c(CN(C)C)c(O)ccc3nc2-1, for which the IC50 is, setting by setting: (curve of first compound, second compound 0.003 µM) greater than 10 µM; (curve of first compound, second compound 0.00949 µM) greater than 10 µM; (curve of first compound, second compound 0.03 µM) less than 0.0316 µM; (curve of first compound, second compound 0.0949 µM) less than 0.0316 µM; (curve of first compound, second compound 0.3 µM) less than 0.0316 µM. Further, the viability, T/C by setting is: (second compound 0.003 µM, first compound 0.0316 µM) 87.6%; (second compound 0.003 µM, first compound 0.1 µM) 78.4%; (second compound 0.003 µM, first compound 0.316 µM) 84.7%; (second compound 0.003 µM, first compound 1 µM) 82.2%; (second compound 0.003 µM, first compound 3.16 µM) 85.9%; (second compound 0.003 µM, first compound 10 µM) 50.9%. The viability, T/C is 76.9% (second compound 0.00949 µM, first compound 0.0316 µM); 77.2% (second compound 0.00949 µM, first compound 0.1 µM); 76% (second compound 0.00949 µM, first compound 0.316 µM); 71.7% (second compound 0.00949 µM, first compound 1 µM); 64.8% (second compound 0.00949 µM, first compound 3.16 µM); 53% (second compound 0.00949 µM, first compound 10 µM). The viability, T/C (second compound 0.03 µM, first compound 0.0316 µM) was 32.5%; the viability, T/C (second compound 0.03 µM, first compound 0.1 µM) was 37.8%; the viability, T/C (second compound 0.03 µM, first compound 0.316 µM) was 34.9%; the viability, T/C (second compound 0.03 µM, first compound 1 µM) is 35.5%; the viability, T/C (second compound 0.03 µM, first compound 3.16 µM) is 28.6%; the viability, T/C (second compound 0.03 µM, first compound 10 µM) was 27.8%. Also, the viability, T/C reads like this: (second compound 0.0949 µM, first compound 0.0316 µM) 14.8%; (second compound 0.0949 µM, first compound 0.1 µM) 14.2%; (second compound 0.0949 µM, first compound 0.316 µM) 14.2%; (second compound 0.0949 µM, first compound 1 µM) 13.4%; (second compound 0.0949 µM, first compound 3.16 µM) 14.1%; (second compound 0.0949 µM, first compound 10 µM) 13.1%. In addition, the viability, T/C was 3.97% (second compound 0.3 µM, first compound 0.0316 µM); 4.78% (second compound 0.3 µM, first compound 0.1 µM); 4.87% (second compound 0.3 µM, first compound 0.316 µM); 5.2% (second compound 0.3 µM, first compound 1 µM); 5.56% (second compound 0.3 µM, first compound 3.16 µM); 6.73% (second compound 0.3 µM, first compound 10 µM).

Turning to `Cc1cc(C)c(CNC(=O)c2cc(-c3ccc(CN4CCOCC4)cc3)cc3c2cnn3C2CCCC2)c(=O)[nH]1`, the viability, T/C is 103% and 102% and 97.1% (compound 0.0316 µM); 101% and 104% and 88.9% (compound 0.1 µM); 110% and 97.8% and 101% (compound 0.316 µM); 106% and 103% and 98.5% (compound 1 µM); 102% and 88.8% and 103% (compound 3.16 µM); 75.6% and 68.8% and 63.9% (compound 10 µM). The half-maximal inhibitory concentration (IC50) (curve of compound) is greater than 10 µM.
